How the values were obtained:
model RNA 1 = experiment: In vitro crosslinking of model RNA 1 duplex, measured by polyacrylamide electrophoresis; format: biochemical; settings: 100 mM activated dicarboxylic acid, 10 μM model RNA 1, MOPS pH 7.5, 4 h at room temperature, PAGE
Experimental: All experiments were performed in triplicate.
Source data are provided as a Source Data file.

[1] = Hydrolysis of the acylating reagent at physiological pH, measured by NMR; format: physicochemical
Experimental: We activated a set of eight dicarboxylic acids with diverse linker lengths and chemical properties (FIG. 1e). The efficiency of crosslinking RNA 1 was measured by polyacrylamide electrophoresis (FIG. 1e). […] This can be potentially explained by the inductive effect of the beta oxygen that substantially increases the reactivity of the activated ester, making it more susceptible to hydrolysis.
(§1) a, Minimal and maximal possible lengths between the crosslinked 2′ oxygen groups in RNA, estimated in PyMOL. Hydroxyl groups are represented by the green oxygen atoms. […] The three lanes represent triplicate experiments. c, Reaction scheme of hydrolysis reaction of DPI. d, Hydrolysis of DPI in phosphate buffer pH 7.4 analyzed by NMR spectroscopy over time. e, Formation of hydrolyzed DPI products over time. After ˜30 min all DPI has been hydrolyzed. f, Hydrolysis of ApA in 100 mM borate buffer pH 10.0 analyzed by NMR spectroscopy over time. g, Formation of hydrolyzed ApA products over time, based on quantification of panel f. […] The three lanes represent triplicate experiments. i, An increase in crosslink reversal (=decrease in crosslinked RNA) is observed at increased pH and temperature, based on quantification of gel pictures in panel h. […]

HEK293 cells = experiment: In-cell SHARC crosslinking, recovery of crosslinked RNA fragments from DD2D gel; format: cell-based, human; settings: HEK293 cells, 5, 12.5, or 25 mM DPI, RNase III fragmentation
Experimental: SHARC-exo accurately measures static and dynamic spatial distances in RNA in cells. To test SHARC-exo, we first crosslinked HEK293 cells with DPI, fragmented RNA with RNase III, and isolated the crosslinked fragments using the DD2D gel method. We recovered 1-2% RNA fragments as crosslinked using 5, 12.5, or 25 mM DPI. We sequenced the SHARC-exo libraries and observed 3.3-14.5% of the reads are gapped, similar to PARIS. Crosslinked reads are highly reproducible at different DPI concentrations.
In vivo crosslinking. Hela and HEK293T cells with 80% confluency in a 10 cm dish were washed twice with 1× phosphate-buffered saline (PBS). […]
a, RNase R reduces arm length in PARIS-exo. b, RNase R trimming leads to enrichment of U at the 5th nucleotide from the 3′ end. c-e, An example of precise crosslink site identification using PARIS-exo. c, vertical lines indicate the 3′ ends (median) from PARIS and PARIS-exo reads. d, The PARIS-exo derived 3′ ends and crosslinking sites are mapped to the H79 and ES31 of human 28S secondary structure. e, cryo-EM structure of H79 and ES31 (PDB: 4V6X). f, HEK293 cells are crosslinked with DPI at different concentrations. […] The smear above the diagonal represents crosslinked RNA. h, Quantification of the recovery of crosslinked RNA fragments from the DD2D gel system (replicates n=9, 16 and 4 for the 3 conditions, respectively). […]

[2] = Hydrolysis in borate buffer/DMSO at pH 10.0, monitored by 1H NMR; format: physicochemical
Source text: Reversing 2′-hydroxyl crosslinking under mild alkaline conditions without RNA damage. Reversal of the crosslinks is necessary for subsequent sequence analysis. We hypothesized that the lower stability of the 2′-acylation products relative to the phosphodiester bonds could allow selective crosslink reversal without causing RNA chain breaks. To test this, we first analyzed the rate of phosphodiester cleavage in a model RNA dinucleotide ApA (FIG. 1f). We compared it to the methyl ester of dipicolinic acid 2 (FIG. 1g), a simple ester derivative of the SHARC reagent DPI. The two compounds were incubated in a 3:1 mixture of 100 mM borate buffer and DMSO at pH 10.0, and the stability was monitored over time by ^1H NMR (FIG. 1h). […] In contrast, compound 2 was fully hydrolyzed after ˜120 min, with a rate constant of 3.5*10^−4 (FIG. 1g). From this we concluded that the ˜1000-fold difference in rate constant should provide sufficient opportunity to selectively reverse the crosslinks under mild alkaline conditions without RNA damage.
as §1

[3] = 3:1 100 mM borate buffer/DMSO, pH 10.0, 5 mM starting concentration

## O=C(COCC(=O)n1ccnc1)n1ccnc1 [Activated diglycolic acid]
Model RNA 1
  crosslinking efficiency of RNA 1: 27%

## O=C(CCCC(=O)n1ccnc1)n1ccnc1 [Activated glutaric acid]
Model RNA 1
  crosslinking efficiency of RNA 1: 94%

## O=C(c1cccc(C(=O)n2ccnc2)n1)n1ccnc1 [DPI, dipicolinic acid imidazolide]
[1]; phosphate buffer pH 7.4, NMR
  time after which all DPI has been hydrolyzed: ~30 min
[1]; physiological pH 7.4, room temperature, NMR
  time after which 50% was hydrolyzed: 5 min
HEK293 cells
  RNA fragments recovered as crosslinked: 1-2%

## COC(=O)c1cccc(C(=O)OC)n1 [compound 2, methyl ester of dipicolinic acid]
[2]; [3]
  rate constant of hydrolysis: 3.5*10^−4
  time to full hydrolysis: ~120 min
[2]; pH 10.0
  difference in rate constant, compound 2 vs ApA: ~1000 fold
